The record followed here is paper doi:10.1101/2023.12.04.569845, “Identification of 4-(6-((2-methoxyphenyl)amino)pyrazin-2-yl)benzoic acids as CSNK2A inhibitors with antiviral activity and improved selectivity over PIM3” (bioRxiv, 2023).

Read-outs that look alike come from different tables or passages of the source.

What all share (experiment): biochemical
What all share (design): Thermal shift (DSF, SYPRO Orange) Tm shift of recombinant kinase domains at 10 uM compound

In assay [1] the target is CLK1 (Homo sapiens, UniProt P49759).
Sequence of CLK1 (P49759 whole entry): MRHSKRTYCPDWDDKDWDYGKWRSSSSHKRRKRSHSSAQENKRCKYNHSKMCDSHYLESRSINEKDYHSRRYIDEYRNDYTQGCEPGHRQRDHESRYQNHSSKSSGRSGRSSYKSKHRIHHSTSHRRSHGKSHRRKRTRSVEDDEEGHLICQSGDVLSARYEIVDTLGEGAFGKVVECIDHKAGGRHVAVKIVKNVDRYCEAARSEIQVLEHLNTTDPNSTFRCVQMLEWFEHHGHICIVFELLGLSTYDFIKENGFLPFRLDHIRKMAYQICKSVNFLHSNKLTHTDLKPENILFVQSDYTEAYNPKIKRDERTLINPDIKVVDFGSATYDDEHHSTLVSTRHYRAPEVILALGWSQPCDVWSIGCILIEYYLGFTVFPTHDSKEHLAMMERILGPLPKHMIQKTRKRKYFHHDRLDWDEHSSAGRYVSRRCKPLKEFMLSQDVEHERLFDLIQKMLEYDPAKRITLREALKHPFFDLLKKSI
In assay [2] the target is DYRK1A (Homo sapiens, UniProt Q13627).
The target in assay [3] is T1, GPRK5 (Homo sapiens, UniProt P34947).
T1 construct: gene GRK5
T1 sequence (P34947 whole entry): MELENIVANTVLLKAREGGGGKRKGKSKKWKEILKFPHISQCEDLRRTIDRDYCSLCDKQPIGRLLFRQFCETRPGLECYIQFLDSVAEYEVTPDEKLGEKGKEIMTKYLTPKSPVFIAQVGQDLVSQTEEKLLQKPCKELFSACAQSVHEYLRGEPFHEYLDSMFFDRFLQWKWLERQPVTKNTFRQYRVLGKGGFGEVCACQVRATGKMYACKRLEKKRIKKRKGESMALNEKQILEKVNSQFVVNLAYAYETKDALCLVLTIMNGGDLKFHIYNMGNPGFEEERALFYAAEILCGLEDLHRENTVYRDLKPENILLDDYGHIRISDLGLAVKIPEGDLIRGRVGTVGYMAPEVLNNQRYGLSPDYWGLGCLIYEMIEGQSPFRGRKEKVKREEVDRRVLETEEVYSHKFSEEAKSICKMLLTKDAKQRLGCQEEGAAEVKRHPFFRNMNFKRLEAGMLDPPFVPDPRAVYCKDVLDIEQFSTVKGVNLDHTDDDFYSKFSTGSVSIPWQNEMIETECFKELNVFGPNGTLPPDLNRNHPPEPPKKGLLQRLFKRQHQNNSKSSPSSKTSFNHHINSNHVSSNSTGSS

The target of assay [4] is MAP2K1 (Homo sapiens, UniProt Q02750).
Sequence of MAP2K1 (Q02750 whole entry): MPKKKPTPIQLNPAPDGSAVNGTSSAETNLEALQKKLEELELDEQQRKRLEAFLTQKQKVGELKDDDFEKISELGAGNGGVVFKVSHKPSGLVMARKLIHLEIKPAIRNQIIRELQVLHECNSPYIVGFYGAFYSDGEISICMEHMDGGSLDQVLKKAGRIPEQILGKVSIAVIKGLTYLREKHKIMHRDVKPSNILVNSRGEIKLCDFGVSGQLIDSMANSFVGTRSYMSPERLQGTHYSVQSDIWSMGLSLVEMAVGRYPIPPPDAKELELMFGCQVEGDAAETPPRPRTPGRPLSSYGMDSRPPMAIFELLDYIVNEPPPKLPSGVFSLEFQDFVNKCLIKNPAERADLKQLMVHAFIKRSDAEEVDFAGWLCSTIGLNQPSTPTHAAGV
Assay [5] addresses MAPKAPK2 (Homo sapiens, UniProt P49137).
The target in assay [6] is T2, MEK4 (Homo sapiens, UniProt P45985).
T2 construct: gene MAP2K4; kinase domain
T2 sequence (P45985 1-399): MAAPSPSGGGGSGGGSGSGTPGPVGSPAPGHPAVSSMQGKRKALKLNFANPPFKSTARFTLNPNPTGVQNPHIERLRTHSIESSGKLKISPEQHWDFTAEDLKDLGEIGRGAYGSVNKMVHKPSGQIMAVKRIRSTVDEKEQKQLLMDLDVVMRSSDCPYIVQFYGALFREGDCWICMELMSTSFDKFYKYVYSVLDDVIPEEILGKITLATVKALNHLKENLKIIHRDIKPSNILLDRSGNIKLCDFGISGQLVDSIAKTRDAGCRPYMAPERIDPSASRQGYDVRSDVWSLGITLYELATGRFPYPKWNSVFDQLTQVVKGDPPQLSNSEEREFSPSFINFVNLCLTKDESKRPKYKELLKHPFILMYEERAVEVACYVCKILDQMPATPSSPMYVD

Assay [7] addresses T3, NDR2 (Homo sapiens, UniProt Q9Y2H1).
T3 construct: gene STK38L

Assay [8] deals with T4, NQO2 (Homo sapiens, UniProt P16083).
T4 sequence (P16083 1-231): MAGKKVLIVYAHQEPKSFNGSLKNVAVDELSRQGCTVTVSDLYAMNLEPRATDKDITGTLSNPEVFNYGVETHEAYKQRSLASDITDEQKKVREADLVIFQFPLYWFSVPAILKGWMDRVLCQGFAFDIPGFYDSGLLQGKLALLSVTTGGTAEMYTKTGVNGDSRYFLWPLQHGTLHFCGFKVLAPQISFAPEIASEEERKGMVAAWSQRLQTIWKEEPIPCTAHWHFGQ

Assay [9] deals with T5, RSK1_b (Homo sapiens, UniProt Q15418).
T5 construct: gene RPS6KA1; second (C-terminal) kinase domain
T5 sequence (Q15418 whole entry, the tested form may be a part): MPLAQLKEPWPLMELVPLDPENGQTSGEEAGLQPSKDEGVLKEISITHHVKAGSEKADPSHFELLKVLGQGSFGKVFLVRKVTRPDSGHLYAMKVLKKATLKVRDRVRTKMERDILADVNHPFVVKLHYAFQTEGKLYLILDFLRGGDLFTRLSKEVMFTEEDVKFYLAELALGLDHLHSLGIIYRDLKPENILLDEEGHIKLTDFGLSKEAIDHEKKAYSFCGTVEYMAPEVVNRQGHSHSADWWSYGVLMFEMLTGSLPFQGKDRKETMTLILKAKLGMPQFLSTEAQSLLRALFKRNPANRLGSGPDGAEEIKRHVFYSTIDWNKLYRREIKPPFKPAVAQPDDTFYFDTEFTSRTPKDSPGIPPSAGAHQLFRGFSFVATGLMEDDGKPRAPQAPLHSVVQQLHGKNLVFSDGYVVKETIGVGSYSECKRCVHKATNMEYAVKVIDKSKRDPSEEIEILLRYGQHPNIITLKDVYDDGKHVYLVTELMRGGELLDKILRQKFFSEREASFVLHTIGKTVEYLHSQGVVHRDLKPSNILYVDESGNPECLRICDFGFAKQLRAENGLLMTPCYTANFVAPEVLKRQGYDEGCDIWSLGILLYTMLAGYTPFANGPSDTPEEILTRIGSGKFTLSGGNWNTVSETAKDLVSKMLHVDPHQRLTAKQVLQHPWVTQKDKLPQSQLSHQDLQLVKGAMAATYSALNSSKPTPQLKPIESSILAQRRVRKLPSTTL

In assay [10] the target is T6, TLK1 (Homo sapiens, UniProt Q9UKI8).
T6 sequence (Q9UKI8 1-766): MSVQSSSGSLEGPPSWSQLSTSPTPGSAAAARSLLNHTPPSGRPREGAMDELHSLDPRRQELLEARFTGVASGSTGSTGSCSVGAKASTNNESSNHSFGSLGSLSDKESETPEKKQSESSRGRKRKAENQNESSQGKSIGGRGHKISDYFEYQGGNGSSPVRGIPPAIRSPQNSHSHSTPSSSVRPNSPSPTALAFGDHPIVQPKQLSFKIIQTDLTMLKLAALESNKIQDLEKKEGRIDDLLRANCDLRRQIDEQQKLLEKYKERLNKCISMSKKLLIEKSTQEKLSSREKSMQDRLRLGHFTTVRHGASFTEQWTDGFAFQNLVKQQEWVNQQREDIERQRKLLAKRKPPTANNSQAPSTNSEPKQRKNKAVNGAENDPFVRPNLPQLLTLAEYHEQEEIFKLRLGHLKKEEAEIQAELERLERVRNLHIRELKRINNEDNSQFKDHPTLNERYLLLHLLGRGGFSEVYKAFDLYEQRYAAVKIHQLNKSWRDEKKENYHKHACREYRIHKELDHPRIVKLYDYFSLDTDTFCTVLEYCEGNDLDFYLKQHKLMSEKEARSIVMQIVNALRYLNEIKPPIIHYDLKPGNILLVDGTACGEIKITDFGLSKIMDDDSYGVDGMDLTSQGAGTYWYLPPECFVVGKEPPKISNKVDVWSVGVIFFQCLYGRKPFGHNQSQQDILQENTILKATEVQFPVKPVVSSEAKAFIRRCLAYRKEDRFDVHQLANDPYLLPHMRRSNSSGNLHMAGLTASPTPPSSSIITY

The target of assay [11] is T7, VRK1 (Homo sapiens, UniProt Q99986).
T7 sequence (Q99986 1-396): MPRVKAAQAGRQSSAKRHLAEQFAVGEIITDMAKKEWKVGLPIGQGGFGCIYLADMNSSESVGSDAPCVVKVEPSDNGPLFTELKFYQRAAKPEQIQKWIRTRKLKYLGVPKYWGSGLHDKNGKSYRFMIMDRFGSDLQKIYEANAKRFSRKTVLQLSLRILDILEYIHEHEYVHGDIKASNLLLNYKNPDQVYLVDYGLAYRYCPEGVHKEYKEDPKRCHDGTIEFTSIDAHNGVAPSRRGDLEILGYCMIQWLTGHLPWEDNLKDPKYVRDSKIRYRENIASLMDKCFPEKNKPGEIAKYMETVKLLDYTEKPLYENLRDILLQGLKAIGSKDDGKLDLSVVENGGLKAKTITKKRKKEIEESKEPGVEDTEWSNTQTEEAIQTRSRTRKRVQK

Sequence of MAPKAPK2 (P49137 whole entry): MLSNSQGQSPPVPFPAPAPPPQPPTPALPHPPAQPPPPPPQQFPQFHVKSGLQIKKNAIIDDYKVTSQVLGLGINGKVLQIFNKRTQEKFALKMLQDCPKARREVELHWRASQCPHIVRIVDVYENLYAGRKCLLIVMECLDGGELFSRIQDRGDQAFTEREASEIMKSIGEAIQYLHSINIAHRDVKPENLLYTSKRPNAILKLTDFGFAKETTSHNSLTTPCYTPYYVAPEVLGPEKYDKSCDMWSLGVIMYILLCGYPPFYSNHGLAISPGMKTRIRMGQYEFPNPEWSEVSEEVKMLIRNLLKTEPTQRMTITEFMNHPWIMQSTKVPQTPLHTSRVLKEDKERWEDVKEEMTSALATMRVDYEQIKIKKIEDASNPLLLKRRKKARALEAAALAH
T3 sequence (Q9Y2H1 whole entry): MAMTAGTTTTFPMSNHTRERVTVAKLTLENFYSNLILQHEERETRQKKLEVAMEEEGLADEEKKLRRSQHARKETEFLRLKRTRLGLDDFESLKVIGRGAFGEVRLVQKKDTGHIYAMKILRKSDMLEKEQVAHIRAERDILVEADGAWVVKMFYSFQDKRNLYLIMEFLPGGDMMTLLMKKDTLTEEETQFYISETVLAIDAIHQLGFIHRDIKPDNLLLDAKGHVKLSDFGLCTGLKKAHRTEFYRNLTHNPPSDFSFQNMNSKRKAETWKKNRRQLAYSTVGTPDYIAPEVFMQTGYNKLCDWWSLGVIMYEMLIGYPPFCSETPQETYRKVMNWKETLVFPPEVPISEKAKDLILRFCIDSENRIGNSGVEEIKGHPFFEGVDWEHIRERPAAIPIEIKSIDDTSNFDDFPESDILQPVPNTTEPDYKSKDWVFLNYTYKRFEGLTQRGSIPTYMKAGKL

On to `CC(C)Oc1ccc2ccn(-c3cncc(-c4ccc(C(=O)O)cc4)n3)c2c1` [6c], for which the ΔTm at 10 µM was 7 °C in assay [1] (read-out: 6c); 6 °C in assay [2] (read-out: 6c); 4 °C in [3] (read-out: 6c); 1 °C in assay [4] (read-out: 6c); -1 °C in assay [5] (read-out: 6c); 9 °C in assay [6] (read-out: 6c). Also, the ΔTm at 10 µM in assay [7] (read-out: 6c) is -1 °C; in [8] (read-out: 6c), -1 °C; in assay [9] (read-out: 6c), 2 °C; in assay [10] (read-out: 6c), -1 °C; in [11] (read-out: 6c) it was 0 °C.

Regarding `COc1ccc(OC(C)C)cc1Nc1cncc(-c2ccc(C(=O)O)cc2)n1` [7c], the ΔTm at 10 µM stood at 7 °C in assay [1] (read-out: 7c); 5 °C in assay [2] (read-out: 7c); 4 °C in [3] (read-out: 7c); 1 °C in assay [4] (read-out: 7c); 0 °C in assay [5] (read-out: 7c); 2 °C in [6] (read-out: 7c). Moreover, the ΔTm at 10 µM in [7] (read-out: 7c) is -1 °C; in [8] (read-out: 7c), -1 °C; in [9] (read-out: 7c), 1 °C; in assay [10] (read-out: 7c) it was -1 °C; in assay [11] (read-out: 7c) it was 0 °C.

As for `CC(C)Nc1ccc2cnn(-c3cncc(-c4ccc(C(=O)O)cc4)n3)c2c1` [compound 2, 2], the ΔTm at 10 µM in assay [1] (read-out: 2) came out at 7 °C; in assay [2] (read-out: 2), 7 °C; in assay [3] (read-out: 2), 6 °C; in assay [4] (read-out: 2) it was 2 °C; in assay [5] (read-out: 2) it was 0 °C; in assay [6] (read-out: 2), 5 °C. Besides, the ΔTm at 10 µM in assay [7] (read-out: 2) was -2 °C; in assay [8] (read-out: 2), -1 °C; in assay [9] (read-out: 2), 4 °C; in assay [10] (read-out: 2), 1 °C; in assay [11] (read-out: 2), 1 °C.
